Assay results taken from the kinase profiling compilation of Christmann-Franck et al. (2016).

What was measured:
CDK10 (human) = CDK10 (human) (UniProt Q15131)
ARAF (human) = ARAF (human) (UniProt P10398)
SGK223 (human) = SGK223 (human) (UniProt Q86YV5)
ATM (human) = ATM (human) (UniProt Q13315)
PRKDC (human) = PRKDC (human) (UniProt P78527)
TESK2 (human) = TESK2 (human) (UniProt Q96S53)
LRRK2 (human) = LRRK2 (human) (UniProt Q5S007)
PIK3C2B (human) = PIK3C2B (human) (UniProt O00750)
CDKL2 (human) = CDKL2 (human) (UniProt Q92772)

PRKDC (human), sequence (P78527 whole entry, looked up): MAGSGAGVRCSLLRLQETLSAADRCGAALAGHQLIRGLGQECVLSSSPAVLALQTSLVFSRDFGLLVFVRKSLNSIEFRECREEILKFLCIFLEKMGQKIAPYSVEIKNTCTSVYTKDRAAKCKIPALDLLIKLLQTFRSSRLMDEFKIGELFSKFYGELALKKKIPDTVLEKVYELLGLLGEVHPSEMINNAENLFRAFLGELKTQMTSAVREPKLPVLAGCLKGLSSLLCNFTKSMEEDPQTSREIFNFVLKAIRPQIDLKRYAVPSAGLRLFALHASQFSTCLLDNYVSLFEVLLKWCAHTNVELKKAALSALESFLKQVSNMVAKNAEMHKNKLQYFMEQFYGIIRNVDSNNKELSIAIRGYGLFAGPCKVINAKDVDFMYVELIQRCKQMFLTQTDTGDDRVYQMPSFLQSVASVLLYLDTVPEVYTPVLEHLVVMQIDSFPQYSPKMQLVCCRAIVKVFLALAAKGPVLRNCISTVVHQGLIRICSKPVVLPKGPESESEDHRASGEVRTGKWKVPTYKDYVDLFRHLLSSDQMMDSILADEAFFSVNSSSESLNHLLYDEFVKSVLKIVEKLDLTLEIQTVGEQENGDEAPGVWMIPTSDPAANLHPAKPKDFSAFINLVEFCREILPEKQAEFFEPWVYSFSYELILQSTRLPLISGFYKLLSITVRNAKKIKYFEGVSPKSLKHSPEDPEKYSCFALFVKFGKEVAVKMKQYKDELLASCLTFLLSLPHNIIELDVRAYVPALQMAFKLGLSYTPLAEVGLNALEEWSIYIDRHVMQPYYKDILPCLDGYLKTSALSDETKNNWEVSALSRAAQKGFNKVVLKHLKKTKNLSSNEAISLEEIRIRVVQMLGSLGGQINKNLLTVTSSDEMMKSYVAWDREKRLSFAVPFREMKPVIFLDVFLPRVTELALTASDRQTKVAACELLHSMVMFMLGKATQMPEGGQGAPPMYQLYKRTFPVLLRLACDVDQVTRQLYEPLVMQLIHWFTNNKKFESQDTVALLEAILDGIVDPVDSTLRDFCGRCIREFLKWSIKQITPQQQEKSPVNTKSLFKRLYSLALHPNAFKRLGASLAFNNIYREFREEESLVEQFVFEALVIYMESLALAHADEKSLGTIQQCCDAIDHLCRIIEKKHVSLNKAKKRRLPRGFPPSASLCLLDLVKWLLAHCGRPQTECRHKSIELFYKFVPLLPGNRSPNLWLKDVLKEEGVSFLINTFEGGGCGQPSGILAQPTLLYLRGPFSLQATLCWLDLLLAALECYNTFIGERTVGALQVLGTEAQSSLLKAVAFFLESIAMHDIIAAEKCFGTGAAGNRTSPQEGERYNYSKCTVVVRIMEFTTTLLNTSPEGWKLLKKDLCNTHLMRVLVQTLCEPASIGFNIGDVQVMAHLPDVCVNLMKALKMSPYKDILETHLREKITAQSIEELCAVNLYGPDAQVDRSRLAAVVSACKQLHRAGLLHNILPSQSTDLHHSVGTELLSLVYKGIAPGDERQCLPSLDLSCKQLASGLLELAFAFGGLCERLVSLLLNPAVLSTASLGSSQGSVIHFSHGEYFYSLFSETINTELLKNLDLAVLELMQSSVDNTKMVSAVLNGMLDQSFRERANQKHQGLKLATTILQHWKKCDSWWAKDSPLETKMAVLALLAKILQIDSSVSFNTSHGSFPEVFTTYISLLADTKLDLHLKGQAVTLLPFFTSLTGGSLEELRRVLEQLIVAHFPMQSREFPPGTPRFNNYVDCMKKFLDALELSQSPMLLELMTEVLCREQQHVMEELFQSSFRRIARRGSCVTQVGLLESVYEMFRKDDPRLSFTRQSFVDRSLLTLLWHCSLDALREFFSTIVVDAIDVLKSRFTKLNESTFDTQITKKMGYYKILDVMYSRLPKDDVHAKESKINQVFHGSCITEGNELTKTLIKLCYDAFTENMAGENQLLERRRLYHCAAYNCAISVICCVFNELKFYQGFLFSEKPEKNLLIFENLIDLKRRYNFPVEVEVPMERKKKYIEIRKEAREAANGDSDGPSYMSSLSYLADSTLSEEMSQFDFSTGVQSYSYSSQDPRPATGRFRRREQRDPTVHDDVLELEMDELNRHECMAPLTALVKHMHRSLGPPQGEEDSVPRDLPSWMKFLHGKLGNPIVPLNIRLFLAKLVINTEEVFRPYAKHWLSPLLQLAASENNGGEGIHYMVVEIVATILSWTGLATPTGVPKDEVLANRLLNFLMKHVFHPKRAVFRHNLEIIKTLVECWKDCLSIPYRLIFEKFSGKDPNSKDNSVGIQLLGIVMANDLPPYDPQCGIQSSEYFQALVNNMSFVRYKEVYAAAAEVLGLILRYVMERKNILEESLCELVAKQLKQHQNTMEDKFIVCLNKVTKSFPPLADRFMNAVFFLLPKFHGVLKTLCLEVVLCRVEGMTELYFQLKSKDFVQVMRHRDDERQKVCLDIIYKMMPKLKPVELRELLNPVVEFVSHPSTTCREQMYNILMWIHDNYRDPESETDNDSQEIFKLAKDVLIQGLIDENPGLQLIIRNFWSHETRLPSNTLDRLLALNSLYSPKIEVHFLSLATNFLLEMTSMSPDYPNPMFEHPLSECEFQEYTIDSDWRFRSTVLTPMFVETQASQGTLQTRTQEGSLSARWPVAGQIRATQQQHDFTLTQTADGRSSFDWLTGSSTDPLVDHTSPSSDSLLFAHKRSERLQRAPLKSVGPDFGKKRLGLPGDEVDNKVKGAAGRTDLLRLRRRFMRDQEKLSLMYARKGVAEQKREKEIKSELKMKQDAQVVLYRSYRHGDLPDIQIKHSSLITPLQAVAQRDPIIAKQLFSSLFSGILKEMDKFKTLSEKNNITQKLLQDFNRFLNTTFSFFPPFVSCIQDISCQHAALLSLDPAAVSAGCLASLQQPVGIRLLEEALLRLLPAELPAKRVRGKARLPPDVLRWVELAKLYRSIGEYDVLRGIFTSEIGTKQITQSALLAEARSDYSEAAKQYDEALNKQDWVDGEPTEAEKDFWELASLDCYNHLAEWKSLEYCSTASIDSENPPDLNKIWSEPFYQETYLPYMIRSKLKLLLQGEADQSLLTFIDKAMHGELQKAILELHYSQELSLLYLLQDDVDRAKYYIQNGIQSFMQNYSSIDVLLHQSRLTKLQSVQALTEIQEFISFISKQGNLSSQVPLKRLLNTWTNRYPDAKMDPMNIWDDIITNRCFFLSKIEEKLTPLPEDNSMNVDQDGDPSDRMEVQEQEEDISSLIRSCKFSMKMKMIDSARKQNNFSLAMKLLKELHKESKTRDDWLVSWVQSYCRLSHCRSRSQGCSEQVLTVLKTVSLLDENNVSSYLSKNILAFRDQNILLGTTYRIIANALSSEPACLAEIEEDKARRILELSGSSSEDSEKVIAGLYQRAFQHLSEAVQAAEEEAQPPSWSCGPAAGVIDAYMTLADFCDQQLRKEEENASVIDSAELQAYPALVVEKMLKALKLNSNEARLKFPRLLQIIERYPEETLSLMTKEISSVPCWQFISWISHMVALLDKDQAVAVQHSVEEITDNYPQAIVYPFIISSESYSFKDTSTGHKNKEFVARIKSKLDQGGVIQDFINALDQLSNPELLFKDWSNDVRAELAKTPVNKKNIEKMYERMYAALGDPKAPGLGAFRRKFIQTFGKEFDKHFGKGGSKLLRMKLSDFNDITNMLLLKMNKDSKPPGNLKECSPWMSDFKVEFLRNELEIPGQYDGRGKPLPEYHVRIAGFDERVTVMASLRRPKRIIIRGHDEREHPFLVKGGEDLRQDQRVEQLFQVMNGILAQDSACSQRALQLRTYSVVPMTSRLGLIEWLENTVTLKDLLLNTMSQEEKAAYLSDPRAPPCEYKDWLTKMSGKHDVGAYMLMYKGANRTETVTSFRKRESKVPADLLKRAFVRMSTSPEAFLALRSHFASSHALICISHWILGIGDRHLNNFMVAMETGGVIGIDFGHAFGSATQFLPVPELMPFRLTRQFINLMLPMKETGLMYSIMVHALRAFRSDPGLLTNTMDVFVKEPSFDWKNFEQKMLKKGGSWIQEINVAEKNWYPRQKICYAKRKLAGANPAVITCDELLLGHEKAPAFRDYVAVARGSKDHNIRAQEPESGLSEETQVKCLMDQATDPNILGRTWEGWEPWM
ARAF (human), sequence (P10398 whole entry, looked up): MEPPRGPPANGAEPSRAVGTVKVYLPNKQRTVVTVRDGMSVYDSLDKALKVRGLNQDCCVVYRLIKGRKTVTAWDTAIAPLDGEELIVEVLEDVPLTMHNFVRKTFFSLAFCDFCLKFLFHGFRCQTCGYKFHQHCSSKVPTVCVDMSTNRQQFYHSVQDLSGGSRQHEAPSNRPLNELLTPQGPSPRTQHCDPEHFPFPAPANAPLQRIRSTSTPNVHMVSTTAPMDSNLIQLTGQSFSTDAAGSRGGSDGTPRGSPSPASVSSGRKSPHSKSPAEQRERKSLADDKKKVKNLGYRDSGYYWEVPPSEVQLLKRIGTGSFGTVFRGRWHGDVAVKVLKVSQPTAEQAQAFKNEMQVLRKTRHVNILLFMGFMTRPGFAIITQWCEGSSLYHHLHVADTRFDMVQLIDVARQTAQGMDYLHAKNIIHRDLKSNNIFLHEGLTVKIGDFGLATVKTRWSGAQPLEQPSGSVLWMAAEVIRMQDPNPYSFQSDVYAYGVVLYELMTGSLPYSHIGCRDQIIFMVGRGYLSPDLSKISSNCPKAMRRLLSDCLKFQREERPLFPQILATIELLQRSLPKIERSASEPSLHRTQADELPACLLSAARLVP
CDK10 (human), sequence (Q15131 whole entry, looked up): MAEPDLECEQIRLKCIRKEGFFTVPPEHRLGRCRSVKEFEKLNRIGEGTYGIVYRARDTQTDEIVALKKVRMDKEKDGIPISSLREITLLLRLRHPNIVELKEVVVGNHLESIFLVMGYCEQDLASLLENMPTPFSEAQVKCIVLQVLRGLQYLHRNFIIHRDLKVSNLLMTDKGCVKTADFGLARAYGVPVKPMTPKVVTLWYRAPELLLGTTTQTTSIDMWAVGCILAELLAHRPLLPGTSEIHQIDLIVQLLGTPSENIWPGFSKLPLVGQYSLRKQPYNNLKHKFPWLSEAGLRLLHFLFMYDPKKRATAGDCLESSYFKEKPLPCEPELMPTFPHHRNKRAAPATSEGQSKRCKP

| IC50 (ATM (human)) [µM] | IC50 (PRKDC (human)) [µM] | IC50 (TESK2 (human)) [µM] | IC50 (LRRK2 (human)) [µM] | IC50 (PIK3C2B (human)) [µM] | IC50 (CDKL2 (human)) [µM] | SMILES | IC50 (CDK10 (human)) [µM] | IC50 (ARAF (human)) [µM] | IC50 (SGK223 (human)) [µM] |
| --- | --- | --- | --- | --- | --- | --- | --- | --- | --- |
| > 10 | > 10 | > 10 |  |  |  | CC(C)(C)c1cnc(CSc2cnc(NC(=O)C3CCNCC3)s2)o1 |  |  |  |
| > 10 | > 10 |  | > 10 | > 10 | > 10 | CC[C@@H](CO)Nc1nc(NCc2ccccc2)c2ncn(C(C)C)c2n1 |  |  | > 10 |

| SMILES | IC50 (ATM (human)) [µM] | IC50 (PRKDC (human)) [µM] | IC50 (TESK2 (human)) [µM] | IC50 (LRRK2 (human)) [µM] | IC50 (PIK3C2B (human)) [µM] | IC50 (CDKL2 (human)) [µM] | IC50 (CDK10 (human)) [µM] | IC50 (ARAF (human)) [µM] | IC50 (SGK223 (human)) [µM] |
| --- | --- | --- | --- | --- | --- | --- | --- | --- | --- |
| CN[C@@H]1C[C@H]2O[C@@](C)([C@@H]1OC)n1c3ccccc3c3c4c(c5c6ccccc6n2c5c31)C(=O)NC4 | > 10 | > 10 |  |  |  |  | 0.87 | > 10 | 5.05 |
